Measured values taken from patent US9573957B2 (Boehringer Ingelheim International GmbH, priority 2013, dated 2017).

Tests used:
human LTA4 hydrolase = human LTA4 hydrolase (Homo sapiens (Human), UniProt P09960); experiment: LTA4H Enzyme assay (peptidase, Arg-AMC cleavage); assay type: biochemical; conditions: LTA4H Enzyme 1 nM, Arg-AMC substrate 50 μM, room temperature 1 h, fluorescence
Experimental: The compounds of the invention are assessed for the ability to interact with human LTA4 hydrolase in an enzymatic assay that measures the ability of the enzyme to cleave the peptide bond of arginyl-aminomethylcoumarin (Arg-AMC). LTA4H Enzyme (1 nM final), Arg-AMC substrate (50 μM final), and compound are combined in a reaction buffer (50 mM Tris-HCl (pH 7.5), 100 mM KCl, 0.5% bovine serum albumin) at room temperature for 1 h. The formation of product is assessed by measuring the fluorescence of aminomethylcoumarin product (excitation wavelength 380 nm/emission wavelength 460 nm).

[1] = test system: synthesis of LTB4 in human whole blood; experiment: LTB4 production inhibition assay in human whole blood (HWB); assay type: cell-based; conditions: heparinized human whole blood, 15 min at 37° C., Calcimycin 20 μM 30 min, plasma LTB4 by HTRF
Experimental: The compounds of the invention are additionally tested in a human whole blood (HWB) assay to determine their ability to inhibit the synthesis of LTB4 in a cellular system. Compounds are combined with heparinized human whole blood and incubated for 15 minutes at 37° C. Calcimycin (20 μM final, prepared in phosphate-buffered saline, pH 7.4) is then added and the mixture is incubated for another 30 minutes at 37° C. The samples are centrifuged for 5 min at low speed (1500×g) and the plasma layer is removed. Plasma LTB4 concentrations are then measured using an antibody-based homogenous time-resolved fluorescence method (CisBio, Bedford, Mass.).

human LTA4 hydrolase, sequence (P09960 whole entry): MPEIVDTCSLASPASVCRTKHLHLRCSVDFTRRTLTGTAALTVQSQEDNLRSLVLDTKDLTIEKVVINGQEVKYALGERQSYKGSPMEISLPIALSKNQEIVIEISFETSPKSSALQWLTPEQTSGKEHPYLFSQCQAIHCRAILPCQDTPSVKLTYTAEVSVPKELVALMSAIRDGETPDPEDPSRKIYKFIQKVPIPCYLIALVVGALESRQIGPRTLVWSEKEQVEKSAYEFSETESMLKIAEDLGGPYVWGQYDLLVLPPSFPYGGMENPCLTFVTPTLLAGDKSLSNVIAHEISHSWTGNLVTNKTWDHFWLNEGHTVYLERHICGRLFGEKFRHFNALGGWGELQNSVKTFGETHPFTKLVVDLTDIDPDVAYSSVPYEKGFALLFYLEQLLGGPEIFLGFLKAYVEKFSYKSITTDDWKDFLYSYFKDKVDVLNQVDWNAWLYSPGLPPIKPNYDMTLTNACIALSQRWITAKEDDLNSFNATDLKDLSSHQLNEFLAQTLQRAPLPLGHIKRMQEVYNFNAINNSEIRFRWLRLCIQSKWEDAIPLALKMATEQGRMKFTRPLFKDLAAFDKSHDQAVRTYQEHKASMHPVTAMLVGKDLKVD

SMILES	IC50 (human LTA4 hydrolase)	IC50 [1]
CO[C@H](C)C(=O)N1CCN(Cc2ccc3cc(Oc4ccc(-c5ccn[nH]5)cn4)ccc3n2)CC1 [Example 140, (R)-2-Methoxy-1-(4-{6-[5-(2H-pyrazol-3-yl)-pyridin-2-yloxy]-quinolin-2-ylmethyl}-piperazin-1-yl)-propan-1-one]	0.57 nM	150 nM
C[C@H](O)C(=O)N1CCN(CCC2COc3cc(Oc4ccc(-c5ccn[nH]5)cn4)ccc32)CC1 (stereo partly drawn) [Example 84, (S)-2-Hydroxy-1-[4-(2-{6-[5-(2H-pyrazol-3-yl)-pyridin-2-yloxy]-2,3-dihydro-benzofuran-3-yl}-ethyl)-piperazin-1-yl]-propan-1-one]	1.3 nM	450 nM
CC(=O)NC1CCN(Cc2coc3cc(Oc4ccc(-c5ccn[nH]5)cn4)ccc23)CC1 [Example 104, N-(1-{6-[5-(2H-Pyrazol-3-yl)-pyridin-2-yloxy]-benzofuran-3-ylmethyl}-piperidin-4-yl)-acetamide]	0.56 nM	150 nM
CC(C)OCC(=O)N1CCN(Cc2ccc3cc(Oc4ccc(-c5ccn[nH]5)cn4)ccc3n2)CC1 [Example 130, 2-Isopropoxy-1-(4-{6-[5-(2H-pyrazol-3-yl)-pyridin-2-yloxy]-quinolin-2-ylmethyl}-piperazin-1-yl)-ethanone]	2.5 nM	630 nM
C[C@@H](O)C(=O)N1CCN(CCc2coc3cc(Oc4ccc(-c5ccn[nH]5)cn4)ccc23)CC1 [Example 92, (R)-2-Hydroxy-1-[4-(2-{6-[5-(2H-pyrazol-3-yl)-pyridin-2-yloxy]-benzofuran-3-yl}-ethyl)-piperazin-1-yl]-propan-1-one]	1.1 nM	470 nM
C[C@H](O)C(=O)N1CC2CCC(C1)N2Cc1ccc2cc(Oc3ccc(-c4ccn[nH]4)cn3)ccc2n1 [Example 57, (S)-2-Hydroxy-1-(8-{6-[5-(2H-pyrazol-3-yl)-pyridin-2-yloxy]-quinolin-2-ylmethyl}-3,8-diaza-bicyclo[3.2.1]oct-3-yl)-propan-1-one]	0.43 nM	98 nM
CC(C)(CO)C(=O)N1CCN(Cc2ccc3cc(Oc4ccc(-c5ccn[nH]5)cn4)ccc3n2)CC1 [Example 135, 3-Hydroxy-2,2-dimethyl-1-(4-{6-[5-(2H-pyrazol-3-yl)-pyridin-2-yloxy]-quinolin-2-ylmethyl}-piperazin-1-yl)-propan-1-one]	5.4 nM	610 nM
CC(C#N)C(=O)N1CCN(Cc2ccc3cc(Oc4ccc(-c5ccn[nH]5)cn4)ccc3n2)CC1 (centres unmarked) [Example 149, 2-Methyl-3-oxo-3-(4-{6-[5-(2H-pyrazol-3-yl)-pyridin-2-yloxy]-quinolin-2-ylmethyl}-piperazin-1-yl)-propionitrile]	0.47 nM	200 nM
O[C@H]1CCCN(Cc2ccc3cc(Oc4ccc(-c5ccn[nH]5)cn4)ccc3c2)C1 [Example 14, (S)-1-{6-[5-(2H-Pyrazol-3-yl)-pyridin-2-yloxy]-naphthalen-2-ylmethyl}-piperidin-3-ol]	1.2 nM	190 nM
O=C(C1CC(O)C1)N1CCN(Cc2ccc3cc(Oc4ccc(-c5ccn[nH]5)cn4)ccc3n2)CC1 (centres unmarked) [Example 139, (3-Hydroxy-cyclobutyl)-(4-{6-[5-(2H-pyrazol-3-yl)-pyridin-2-yloxy]-quinolin-2-ylmethyl}-piperazin-1-yl)-methanone]	3 nM	500 nM
CN1CCC2(CCN(Cc3coc4cc(Oc5ccc(-c6ccn[nH]6)cn5)ccc34)CC2)C1=O [Example 110, 2-Methyl-8-{6-[5-(2H-pyrazol-3-yl)-pyridin-2-yloxy]-benzofuran-3-ylmethyl}-2,8-diaza-spiro[4.5]decan-1-one]	0.22 nM	130 nM
O=C1[C@@H](O)CCN1C1CCN(C[C@@H]2Cc3ccc(Oc4ccc(-c5ccn[nH]5)cn4)cc3O2)CC1 [Example 61, (S)-3-Hydroxy-1-(1-{(S)-6-[5-(2H-pyrazol-3-yl)-pyridin-2-yloxy]-2,3-dihydro-benzofuran-2-ylmethyl}-piperidin-4-yl)-pyrrolidin-2-one]	1.2 nM	220 nM
O=C(CO)N1CCC2(CCN(Cc3ccc4cc(Oc5ccc(-c6ccn[nH]6)cn5)ccc4n3)C2)C1 (centres unmarked) [Example 102, 2-Hydroxy-1-(7-{6-[5-(2H-pyrazol-3-yl)-pyridin-2-yloxy]-quinolin-2-ylmethyl}-2,7-diaza-spiro[4.4]non-2-yl)-ethanone]	0.66 nM	150 nM
CC(C)(O)C(=O)N1CCN(CCc2coc3cc(Oc4ccc(-c5ccn[nH]5)cn4)ccc23)CC1 [Example 85, 2-Hydroxy-2-methyl-1-[4-(2-{6-[5-(2H-pyrazol-3-yl)-pyridin-2-yloxy]-benzofuran-3-yl}-ethyl)-piperazin-1-yl]-propan-1-one]	1.3 nM	310 nM
CC(C)(C#N)C(=O)N1CC2CCC(C1)N2Cc1ccc2cc(Oc3ccc(-c4ccn[nH]4)cn3)ccc2n1 [Example 51, 2,2-Dimethyl-3-oxo-3-(8-{6-[5-(2H-pyrazol-3-yl)-pyridin-2-yloxy]-quinolin-2-ylmethyl}-3,8-diaza-bicyclo[3.2.1]oct-3-yl)-propionitrile]	0.73 nM	210 nM
C[C@H](O)C(=O)N1CCN(Cc2ccc3cc(Oc4ccc(-c5ccn[nH]5)cn4)ccc3n2)CC1 [Example 129, (S)-2-Hydroxy-1-(4-{6-[5-(2H-pyrazol-3-yl)-pyridin-2-yloxy]-quinolin-2-ylmethyl}-piperazin-1-yl)-propan-1-one]	0.86 nM	180 nM
CC(C)(C)C(=O)N1CCN(Cc2ccc3cc(Oc4ncc(-c5ccn[nH]5)cn4)ccc3c2)CC1 [Example 35, 2,2-Dimethyl-1-(4-{6-[5-(2H-pyrazol-3-yl)-pyrimidin-2-yloxy]-naphthalen-2-ylmethyl}-piperazin-1-yl)-propan-1-one]	2.7 nM	950 nM
CCOCC(=O)N1CCN(Cc2ccc3cc(Oc4ccc(-c5ccn[nH]5)cn4)ccc3n2)CC1 [Example 124, 2-Ethoxy-1-(4-{6-[5-(2H-pyrazol-3-yl)-pyridin-2-yloxy]-quinolin-2-ylmethyl}-piperazin-1-yl)-ethanone]	2.6 nM	420 nM
CC(=O)N1CCN(C(=O)c2coc3cc(Oc4ccc(-c5ccn[nH]5)cn4)ccc23)CC1 [Example 112, 1-(4-{6-[5-(2H-Pyrazol-3-yl)-pyridin-2-yloxy]-benzofuran-3-carbonyl}-piperazin-1-yl)-ethanone]	1.9 nM	350 nM
O=C([C@@H]1CCCO1)N1CCN(Cc2ccc3cc(Oc4ccc(-c5ccn[nH]5)cn4)ccc3n2)CC1 [Example 132, (4-{6-[5-(2H-Pyrazol-3-yl)-pyridin-2-yloxy]-quinolin-2-ylmethyl}-piperazin-1-yl)-(S)-tetrahydro-furan-2-yl-methanone]	2.9 nM	630 nM
CC[C@H](O)C(=O)N1CCN(Cc2ccc3cc(Oc4ccc(-c5ccn[nH]5)cn4)ccc3n2)CC1 [Example 127, (S)-2-Hydroxy-1-(4-{6-[5-(2H-pyrazol-3-yl)-pyridin-2-yloxy]-quinolin-2-ylmethyl}-piperazin-1-yl)-butan-1-one]	2.3 nM	320 nM
CC(C)[C@H](O)C(=O)N1CCN(Cc2ccc3cc(Oc4ccc(-c5ccn[nH]5)cn4)ccc3n2)CC1 [Example 137, (S)-2-Hydroxy-3-methyl-1-(4-{6-[5-(2H-pyrazol-3-yl)-pyridin-2-yloxy]-quinolin-2-ylmethyl}-piperazin-1-yl)-butan-1-one]	2.5 nM	440 nM
